Test results from patent publication US11033496B2, “Nanoparticles for delivery of chemopreventive agents” (OHIO STATE INNOVATION FOUNDATION, priority 2017, dated 2021).
Where two headings read alike, the source gives them in different places.

Tested on: human OSCC cells (three oral SCC cell lines)
Format: cell-based
Conditions: for maximum uptake (fluorescence intensity): 6 h
Procedure: Mean±S.D., n=18, *=p<0.01, ‡=p,0.001, Mann Whitney U 2-tailed test.
The internalization of free-IDA was more rapid than IDA-NP after 1-hour at 1000 nM (free-IDA: 21.08±5.33 vs. IDA-NP: 12.87±4.32). However, the maximum uptake of IDA-NP was greater than free-IDA after 6 hours at 2500 nM (IDA-NP: 43.53±8.42 vs. free-IDA: 27.61±5.66) and 5000 nM (IDA-NP: 64.44±12.71 vs. free-IDA: 31.06±7.24). [Data collected from three oral SCC cell lines, mean±SD, n=18, *P≤0.01 †P≤0.002, ‡P≤0.001; IDA-NP samples compared to free-IDA samples [Mann-Whitney U two-tailed Test].

internalization / cellular uptake (fluorescence intensity) (1 h, 1000 nM): 21.08±5.33 | maximum uptake (fluorescence intensity) (2500 nM): 27.61±5.66 | maximum uptake (fluorescence intensity) (5000 nM): 31.06±7.24
SMILES: CC(=O)[C@]1(O)Cc2c(O)c3c(c(O)c2[C@@H](O[C@H]2C[C@H](N)[C@H](O)[C@H](C)O2)C1)C(=O)c1ccccc1C3=O [free-IDA, idarubicin]
